In ChEMBL document CHEMBL1124132, “Adenosine receptor agonists: synthesis and biological evaluation of 1-deaza analogues of adenosine derivatives” (J Med Chem, 1988):

Tests used:
Homo sapiens = species on record: Homo sapiens; assay: Concentration that inhibits platelet aggregation induced by ADP (7 uM) by 50%; format: functional
[1] = target: T1, Adenosine receptor A1 (Rattus norvegicus) (UniProt P25099); assay: Maximal inhibition of adenylate cyclase activity relative to R-PIA for Adenosine A1 receptor (Inhibition by R-PIA=53+/-10%)
T1 sequence (whole entry): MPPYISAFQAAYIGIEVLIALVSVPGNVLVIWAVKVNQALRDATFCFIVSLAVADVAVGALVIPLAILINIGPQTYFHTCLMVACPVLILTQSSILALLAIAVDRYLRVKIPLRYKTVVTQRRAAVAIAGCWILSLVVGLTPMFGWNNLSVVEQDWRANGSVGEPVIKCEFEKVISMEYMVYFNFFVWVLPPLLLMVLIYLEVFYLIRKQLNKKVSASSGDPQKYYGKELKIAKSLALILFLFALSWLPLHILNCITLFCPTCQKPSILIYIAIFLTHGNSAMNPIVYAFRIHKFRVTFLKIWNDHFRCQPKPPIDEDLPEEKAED

Adenosine A2 receptor [2] = target: Adenosine A2 receptor (Homo sapiens, UniProt P29275+P29274)
Description: Stimulation of adenylate cyclase activity in human platelet membrane at A2 receptor

[3] = A1 selectivity as ratio of EC50 at A2 receptor to IC50 at A1 receptor
Adenosine A2 receptor [4] = target: Adenosine A2 receptor (Rattus norvegicus, UniProt P29276+P30543)
Adenosine receptor A1 [5] = target: T2, Adenosine receptor A1 (Rattus norvegicus, UniProt P25099); assay: Inhibition of Adenylate cyclase activity in rat fat cell membrane at adenosine A1 receptor; format: cell-based
T2 sequence (P25099 whole entry): T1 sequence (whole entry)

Adenosine receptor A1 [6] = target: T2, Adenosine receptor A1
Description: Displacement of [3H]PIA from adenosine A1 receptor of rat brain membranes

Row | IC50 (Homo sapiens) [nM] | relative max inhibition [1] [%] | EC50 (Adenosine A2 receptor [2]) [nM] | Selectivity [3] | Ki (Adenosine A2 receptor [4]) [nM] | IC50 (Adenosine receptor A1 [5]) [nM] | Ki (Adenosine receptor A1 [6]) [nM] | Structure (SMILES)
1 | 5940 |  |  |  |  |  |  | Nc1ncnc2c1ncn2[C@@H]1O[C@H](CO)[C@@H](O)[C@H]1O [ADENOSINE]
2 |  | 108 | 3500 | 3.6 | 3700 | 960 | 18 | CC(Cc1ccccc1)Nc1cc(Cl)nc2c1ncn2C1O[C@H](CO)[C@@H](O)[C@H]1O (stereo partly drawn)
3 | 5960 | 104 | 2800 | 1.9 | 580 | 1500 | 51 | CCNC(=O)[C@H]1O[C@@H](n2cnc3c(N)ccnc32)[C@H](O)[C@@H]1O
4 |  | 107 | 28000 | 78 | 13200 | 360 | 1.6 | OC[C@H]1O[C@@H](n2cnc3c(NC4CCCC4)cc(Cl)nc32)[C@H](O)[C@@H]1O
5 |  | 114 | 4800 | 2 | 8200 | 2400 | 47 | OC[C@H]1O[C@@H](n2cnc3c(NC4CCCCC4)cc(Cl)nc32)[C@H](O)[C@@H]1O
6 |  | 116 | 6600 | 10.5 | 4900 | 630 | 7.7 | CC(Cc1ccccc1)Nc1ccnc2c1ncn2C1O[C@H](CO)[C@@H](O)[C@H]1O (stereo partly drawn)
7 |  |  |  |  | 2000 |  |  | OC[C@H]1O[C@@H](n2cnc3c(NC4CCCC4)ncnc32)[C@H](O)[C@@H]1O [N6-CYCLOPENTYLADENOSINE]
8 |  | 107 | 26000 | 27 | 17600 | 970 | 7.5 | OC[C@H]1O[C@@H](n2cnc3c(NC4CCCC4)ccnc32)[C@H](O)[C@@H]1O
9 | 65500 | 97 | 18000 | 2.7 | 2900 | 6700 | 115 | Nc1ccnc2c1ncn2[C@@H]1O[C@H](CO)[C@@H](O)[C@H]1O
10 |  | 109 | 20000 | 12.4 | 6800 | 1600 | 16 | OC[C@H]1O[C@@H](n2cnc3c(NC4CCCCC4)ccnc32)[C@H](O)[C@@H]1O

Row | Structure (SMILES) | IC50 (Homo sapiens) [nM] | relative max inhibition [1] [%] | EC50 (Adenosine A2 receptor [2]) [nM] | Selectivity [3] | Ki (Adenosine A2 receptor [4]) [nM] | IC50 (Adenosine receptor A1 [5]) [nM] | Ki (Adenosine receptor A1 [6]) [nM]
11 | CCNC(=O)[C@H]1O[C@@H](n2cnc3c(N)ncnc32)[C@H](O)[C@@H]1O [NECA] | 600 |  |  |  |  |  | 
